What is called IC50 is the concentration at which inhibition is half-maximal.

Where two headings read alike, the source gives them in different places.

Drawing on patent publication US5952328A, “Benzothiazo and related heterocyclic group-containing cysteine and serine protease inhibitors” (Cephalon, Inc., priority 1997, dated 1999), this text covers IC50 for 24 compounds.

The target of the assay is T1, Calpain I (Homo sapiens, UniProt P07384).
T1 construct: made in house
T1 sequence (P07384 1-714): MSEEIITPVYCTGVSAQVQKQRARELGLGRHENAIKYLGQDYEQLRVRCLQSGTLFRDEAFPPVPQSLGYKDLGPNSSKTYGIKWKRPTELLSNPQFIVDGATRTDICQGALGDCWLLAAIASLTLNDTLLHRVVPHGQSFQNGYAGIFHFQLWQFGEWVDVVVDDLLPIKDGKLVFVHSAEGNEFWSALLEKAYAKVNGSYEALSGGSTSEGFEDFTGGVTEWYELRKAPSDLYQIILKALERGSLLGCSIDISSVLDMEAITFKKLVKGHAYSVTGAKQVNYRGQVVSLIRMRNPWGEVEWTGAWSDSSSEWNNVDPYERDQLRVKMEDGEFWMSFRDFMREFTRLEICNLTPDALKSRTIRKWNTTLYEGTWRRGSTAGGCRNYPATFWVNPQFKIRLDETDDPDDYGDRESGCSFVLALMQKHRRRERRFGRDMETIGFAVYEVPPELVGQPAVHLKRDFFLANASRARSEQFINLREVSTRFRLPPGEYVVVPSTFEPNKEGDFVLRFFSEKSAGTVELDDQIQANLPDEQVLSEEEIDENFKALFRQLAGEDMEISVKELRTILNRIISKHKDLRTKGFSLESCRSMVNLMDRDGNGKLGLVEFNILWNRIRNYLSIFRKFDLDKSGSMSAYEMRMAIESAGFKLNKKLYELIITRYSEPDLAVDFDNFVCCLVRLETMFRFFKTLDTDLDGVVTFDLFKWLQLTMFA
T1 sequence (P04632 1-268 partner): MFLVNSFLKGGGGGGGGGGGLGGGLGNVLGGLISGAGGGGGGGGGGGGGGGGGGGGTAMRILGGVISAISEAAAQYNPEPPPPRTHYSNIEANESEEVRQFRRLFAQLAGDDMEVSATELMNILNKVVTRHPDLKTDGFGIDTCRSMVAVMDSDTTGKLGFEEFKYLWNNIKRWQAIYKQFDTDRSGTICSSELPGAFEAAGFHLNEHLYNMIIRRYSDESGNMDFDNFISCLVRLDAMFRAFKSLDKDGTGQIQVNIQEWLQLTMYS
The experiment in a line: Inhibition of calpain I activity (Succ-Leu-Tyr-MNA substrate hydrolysis, fluorescence). The format is biochemical. As for the experimental part: To evaluate inhibitory activity, stock solutions (40 times concentrated) of each compound to be tested were prepared in 100% anhydrous DMSO and […] of each inhibitor preparation were aliquoted into each of three wells of a 96-well plate. Calpain I, prepared by a modification of the method of W. J. Lee et al. (Biochem. […] To start the reaction, […] of 50 mM CaCl2 in assay buffer was added to each of the wells of the plate, excepting three, which were used as background signal baseline controls. Substrate hydrolysis was monitored every 5 minutes for a total of 30 minutes using a Fluoroskan II fluorescence plate reader. […] Inhibition of calpain I activity was calculated as the percent decrease in the rate of substrate hydrolysis in the presence of inhibitor relative to the rate in its absence. Comparison between the inhibited and control rates was made within the linear range for substrate hydrolysis. For screening, compounds were tested at […]. […] The results were plotted as percent inhibition versus log inhibitor concentration, and the IC50 was calculated from linear regression of the data.

Setting [1] is: Table II, calpain I, 0.2 mM Succ-Leu-Tyr-MNA, pH 7.5, * mixture of diastereomers, a,b single diastereomers, read-out: IC50.
Where [2] appears, read: Table IV, calpain I, 0.2 mM Succ-Leu-Tyr-MNA, pH 7.5, read-out: IC50.
The mark [3] stands for this setting: Table III, calpain I, 0.2 mM Succ-Leu-Tyr-MNA, pH 7.5, * mixture of diastereomers, a,b single diastereomers, read-out: IC50.
Setting [4] is: Table VI, calpain I, 0.2 mM Succ-Leu-Tyr-MNA, pH 7.5, read-out: IC50.
The mark [5] stands for this setting: Table VII, calpain I, 0.2 mM Succ-Leu-Tyr-MNA, pH 7.5, a,b single diastereomers, read-out: IC50.
Setting [6] is: Table V, calpain I, 0.2 mM Succ-Leu-Tyr-MNA, pH 7.5, * mixture of diastereomers, a,b single diastereomers, read-out: IC50.

As to `COc1cc2c(cc1OC)S(=O)(=O)OC(C(=O)N[C@H](C=O)Cc1ccccc1)C2` (stereo partly drawn) [Cpd 12b, N-(3,4-Dihydro-6,7-dimethoxy-2,1-benzoxathiin-3-carbonyl)-L-phenylalaninal 1,1-dioxide], the IC50 under setting [1] was 0.051 µM.

With `CCCCNC(=O)C(=O)[C@H](Cc1ccccc1)NC(=O)C1=C(O)c2ccccc2S(=O)(=O)N1C` [Cpd 27h, 3-((4-Hydroxy-2-methyl-2H-1,2-benzothiazine-3-carbonyl)amino)-3-(S)-benzyl-2-oxo-N-butylpropanamide 1,1-dioxide], under setting [2], the IC50 was roughly 10 µM.

As to `CN1C(C(=O)N[C@H](C=O)Cc2ccccc2)Cc2cc(Cl)ccc2S1(=O)=O` (stereo partly drawn) [Cpd 12p, N-(6-Chloro-3,4-dihydro-2-methyl-2H-1,2-benzothiazine-3-carbonyl)-L-phenylalaninal 1,1-dioxide], the IC50 under setting [1] is 0.005 µM.

`CCN1C(C(=O)N[C@@H](Cc2ccccc2)C(=O)C(=O)NCCNS(=O)(=O)c2ccc(-c3ccccn3)s2)Cc2cc3c(cc2S1(=O)=O)OCCO3` (stereo partly drawn) [Cpd 14Y]: the IC50 under setting [3] is 0.02 µM.

Turning to `COc1cc2c(cc1OC)S(=O)(=O)N(Cc1ccccc1)C(C(=O)N[C@H](C=O)Cc1ccccc1)C2` (stereo partly drawn) [Cpd 12h, N-(2-Benzyl-3,4-dihydro-6,7-dimethoxy-2H-1,2-benzothiazine-3-carbonyl)-L-phenylalaninal 1,1-dioxide], the IC50 under setting [1] was 0.15 µM.

For the compound `O=C[C@H](Cc1ccccc1)NC(=O)C1=Nc2cc3c(cc2S(=O)(=O)N1)OCCO3` [Cpd 42b, N-(2H-6,7-Ethylenedioxy-1,2,4-benzothiadiazine-3-carbonyl)-L-phenylalaninal1,1-dioxide], under setting [4], the IC50 was determined as 0.028 µM.

Take `CCN1C(C(=O)N[C@@H](Cc2ccccc2)C(=O)C(=O)NCCNS(=O)(=O)c2ccc(Cl)c(Cl)c2)Cc2cc3c(cc2S1(=O)=O)OCCO3` (stereo partly drawn) [Cpd 14V, 3-((3,4-Dihydro-6,7-ethylenedioxy-2-ethyl-2H-1,2-benzothiazine-3-carbonyl)amino)-3-(S)-benzyl-2-oxo-N-(2-(3,4-dichlorobenzenesulfonylamino)ethyl)propanamide 1,1-dioxide]: under setting [3], the IC50 worked out at 0.056 µM.

As to `CCN1C(C(=O)N[C@@H](Cc2ccccc2)C(=O)C(=O)NCCNS(C)(=O)=O)Cc2cc3c(cc2S1(=O)=O)OCCO3` (stereo partly drawn) [Cpd 14S], the IC50 under setting [3] amounted to 0.089 µM.

With `CCN1C(C(=O)N[C@@H](Cc2ccccc2)C(O)S(=O)(=O)O)Cc2cc3c(cc2S1(=O)=O)OCCO3` (stereo partly drawn) [Example 187, N-(3,4-Dihydro-6,7-ethylenedioxy-2-ethyl-2H-1,2-benzothiazine-3-carbonyl)-L-phenylalaninal 1,1-dioxide, bisulfite addition compound], where the note is “Example 187, in text, bisulfite addition compound, read-out: IC50 (calpain)”, the IC50 stood at 0.008 µM.

As for `CN1C(C(=O)N[C@H](C=O)Cc2ccccc2)=Cc2cc3c(cc2S1(=O)=O)OCCO3` [Cpd 26b, N-(6,7-Ethylenedioxy-2-methyl-2H-1,2-benzothiazine-3-carbonyl)-L-phenylalaninal 1,1-dioxide], the IC50 under setting [2] turned out to be 0.006 µM.

As for `CCN1C(C(=O)N[C@@H](Cc2ccccc2)C(=O)C(=O)NCCNS(=O)(=O)c2ccc([N+](=O)[O-])cc2)Cc2cc3c(cc2S1(=O)=O)OCCO3` (stereo partly drawn) [Cpd 14T, 3-((3,4-Dihydro-6,7-ethylenedioxy-2-ethyl-2H-1,2-benzothiazine-3-carbonyl)amino)-3-(S)-benzyl-2-oxo-N-(2-(4-nitrobenzenesulfonylamino)ethyl)propanamide 1,1-dioxide], under setting [3], the IC50 came to 0.047 µM.

As for `CCCCNC(=O)C(=O)[C@H](Cc1ccccc1)NC(=O)C1=Nc2ccccc2S(=O)(=O)N1` [Cpd 42c, 3-((2H-1,2,4-Benzothiadiazine-3-carbonyl)amino)-3-(S)-benzyl-2-oxo-N-butylpropanamide 1,1-dioxide], under setting [4], the IC50 is roughly 5 µM.

Regarding `CN1C(C(=O)N[C@H](C=O)Cc2ccccc2)Cc2cc3c(cc2S1(=O)=O)OCCO3` (stereo partly drawn) [Cpd 12r, N-(3,4-Dihydro-6,7-ethylenedioxy-2-methyl-2H-1,2-benzothiazine-3-carbonyl)-L-phenylalaninal 1,1-dioxide], the IC50 under setting [1] is 0.024 µM.

With `COc1cc2c(cc1OC)S(=O)(=O)N(C)C(C(=O)N[C@H](C=O)Cc1ccccc1)C2` (stereo partly drawn) [Cpd 12e, N-(3,4-Dihydro-6,7-dimethoxy-2-methyl-2H-1,2-benzothiazine-3-carbonyl)-L-phenylalaninal 1,1-dioxide], under setting [1], the IC50 is 0.2 µM.

As to `CN1C(C(=O)N[C@H](C=O)Cc2ccccc2)Cc2cc(Cl)ccc2S1(=O)=O` (stereo partly drawn) [Cpd 12q, N-(6-Chloro-3,4-dihydro-2-methyl-2H-1,2-benzothiazine-3-carbonyl)-L-phenylalaninal 1,1-dioxide], the IC50 under setting [1] was 0.015 µM.

As to `O=C[C@H](Cc1ccccc1)NC(=O)C1Cc2ccccc2C(=O)N1` (single isomer, unassigned) [Cpd 50b, N-(1-Oxo-1,2,3,4-tetrahydroisoquinoline-3-carbonyl)-L-phenylalaninal], the IC50 under setting [5] is roughly 5 µM.

In the case of `CN1C(=O)c2ccccc2CC1C(=O)N[C@H](C=O)Cc1ccccc1` (single isomer, unassigned) [Cpd 50c, N-(1-Oxo-2-methyl-1,2,3,4-tetrahydroisoquinoline-3-carbonyl)-L-phenylalaninal], the IC50 under setting [5] is roughly 1 µM.

Consider `CCN1C(C(=O)N[C@@H](Cc2ccccc2)C(=O)C(=O)NCCCNS(=O)(=O)c2ccc(F)cc2)Cc2cc3c(cc2S1(=O)=O)OCCO3` (stereo partly drawn) [Cpd 14Z, 3-((3,4-Dihydro-6,7-ethylenedioxy-2-ethyl-2H-1,2-benzothiazine-3-carbonyl)amino)-3-(S)-benzyl-2-oxo-N-(3-(4-fluorobenzenesulfonylamino)propyl)propanamide 1,1-dioxide], for which the IC50 under setting [3] turned out to be 0.05 µM.

On to `CCCCNC(=O)C(=O)[C@H](Cc1ccccc1)NC(=O)C1=C(OC)c2ccccc2S(=O)(=O)N1C` [Cpd 27g, 3-((4-Methoxy-2-methyl-2H-1,2-benzothiazine-3-carbonyl)amino)-3-(S)-benzyl-2-oxo-N-butylpropanamide 1,1-dioxide], for which the IC50 under setting [2] amounted to 0.9 µM.

Take `CCN1C(C(=O)N[C@H](C=O)Cc2ccccc2)N(Cc2ccccc2)c2ccccc2S1(=O)=O` (single isomer, unassigned) [Cpd 35c, N-(3,4-Dihydro-2-ethyl-4-benzyl-2H-1,2,4-benzothiadiazine-3-carbonyl)-L-phenylalaninal 1,1-dioxide]: the IC50 under setting [6] is roughly 10 µM.

On to `CCCCNC(=O)C(=O)[C@H](Cc1ccccc1)NC(=O)C1=Cc2cc3c(cc2S(=O)(=O)N1C)OCCO3` [Cpd 27e, 3-((6,7-Ethylenedioxy-2-methyl-2H-1,2-benzothiazine-3-carbonyl)amino)-3-(S)-benzyl-2-oxo-N-butylpropanamide 1,1-dioxide], for which, under setting [2], the IC50 was 0.21 µM.

For the compound `COc1cc2c(cc1OC)S(=O)(=O)OC(C(=O)N[C@H](C=O)CC(C)C)C2` (stereo partly drawn) [Cpd 12a, N-(3,4-Dihydro-6,7-dimethoxy-2,1-benzoxathiin-3-carbonyl)-L-leucinal 1,1-dioxide], the IC50 under setting [1] is 0.13 µM.

For the compound `CC(C)N1C(C(=O)N[C@H](C=O)Cc2ccccc2)Cc2cc3c(cc2S1(=O)=O)OCCO3` (stereo partly drawn) [Cpd 12u, N-(3,4-Dihydro-6,7-ethylenedioxy-2-isopropyl-2H-1,2-benzothiazine-3-carbonyl)-L-phenylalaninal 1,1-dioxide], the IC50 under setting [1] is 0.03 µM.

On to `CCCN1c2ccccc2S(=O)(=O)N(CC)C1C(=O)N[C@H](C=O)Cc1ccccc1` (single isomer, unassigned) [Cpd 35b, N-(3,4-Dihydro-2-ethyl-4-propyl-2H-1,2,4-benzothiadiazine-3-carbonyl)-L-phenylalaninal 1,1-dioxide], for which, under setting [6], the IC50 is roughly 3 µM.
